Publication PMC4971072, “Chemically Homogenous Compounds with Antagonistic Properties at All α1-Adrenoceptor Subtypes but not β1-Adrenoceptor Attenuate Adrenaline-Induced Arrhythmia in Rats” (Frontiers in Pharmacology, 2016)

How the values were obtained:
normal ECG in rats = assay: The effect on normal electrocardiogram in rats; type: in vivo, rat; settings: anesthetized rats, i.p. at ED84
Method: The experiment was carried out to exclude the influence of tested compounds on normal ECG. […] The influence on QRS complex, PQ interval, heart rate (RR), and QTc interval was determined.

α1-adrenoceptor = settings: rat cerebral cortex, [3H]-prazosin; ref Pytka et al. (2015); read-out: Adrenergic receptors Ki α1; cited from earlier work
[1] = test system: adrenaline-induced arrhythmia in rats; assay: Prophylactic antiarrhythmic activity in adrenaline-induced arrhythmia; type: in vivo, rat
Method: The studied compounds were administered i.p. 45 min before the injection of adrenaline, calcium chloride, or barium chloride. The electrocardiogram (ECG) was recorded during the first 2 min as well as in the 5th, 10th, and 15th min after the arrhythmogen injection. […]

[2] = test system: lipid peroxidation in rat brain homogenate; assay: Lipid peroxidation in rat brain homogenate (TBARS), antioxidant effect; type: biochemical; settings: 10^−3 M
Method: The rat brain homogenate containing 10 mg tissue/ml was prepared in 0.9% saline. The rates of membrane lipid peroxidation were measured by the formation of thiobarbituric acid reactive substances (TBARS). Rat brain homogenates (1 ml) were incubated at 37°C for 5 min with 10 μl of a tested compound or vehicle. Lipid peroxidation was initiated by the addition of 50 μl of 0.5 mM FeCl2 and 50 μl of 2.0 mM ascorbic acid. After 30 min of incubation, the reaction was stopped by adding 0.1 ml of 0.2% butylated hydroxytoluene (BHT). Thiobarbituric acid reagent was then added and the mixture was heated for 15 min in a boiling water bath.

α1B-adrenoceptors = biological target: T1, α1B-adrenoceptors (Mus musculus, UniProt P97717); assay: Functional bioassay, isolated mouse spleen, noradrenaline contraction; type: biochemical; settings: noradrenaline as agonist
T1 construct: The spleen was removed from male mice; from tissue; host or cells: isolated mouse spleen
T1 sequence (P97717 1-514): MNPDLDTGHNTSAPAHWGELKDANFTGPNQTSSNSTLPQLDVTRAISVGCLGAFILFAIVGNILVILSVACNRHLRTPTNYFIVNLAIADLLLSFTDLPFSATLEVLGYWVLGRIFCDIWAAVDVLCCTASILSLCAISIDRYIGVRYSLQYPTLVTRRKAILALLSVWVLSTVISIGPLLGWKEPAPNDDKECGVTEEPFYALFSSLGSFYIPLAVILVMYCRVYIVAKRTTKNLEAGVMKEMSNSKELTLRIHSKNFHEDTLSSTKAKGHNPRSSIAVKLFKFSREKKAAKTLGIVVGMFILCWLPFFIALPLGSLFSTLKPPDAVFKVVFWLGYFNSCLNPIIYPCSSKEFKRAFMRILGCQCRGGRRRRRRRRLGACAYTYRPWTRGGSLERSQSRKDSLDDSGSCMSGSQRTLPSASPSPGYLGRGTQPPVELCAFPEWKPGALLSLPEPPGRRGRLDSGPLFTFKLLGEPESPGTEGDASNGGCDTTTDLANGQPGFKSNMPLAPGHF
Method: The influence on α1B-adrenoceptors was evaluated using the isolated mouse spleen. The spleen was removed from male mice right after killing the anesthetized animal by cervical dislocation. […] The initial optimal tissues tension was set at 1.0 g. Through the 100 min of equilibration tissues were stimulated with noradrenaline (0.1−10.0 μM) three times with washing out until the contractile response become constant. Two cumulative concentration-response curves to noradrenaline, at an interval of 60 min, were established on each tissue both in the presence and absence of antagonist. The incubation with antagonists went on for 30 min. The experiments were carried out in the constant presence of propranolol (1 μM) to block β-adrenoceptors, and minimize the involvement of these adrenoceptors in the response to noradrenaline.
Data are means ± S.E.M. of at least 4 separate experiments. To establish Hill slopes for the agonist concentration–response curves and calculate EC50 values, curves were fitted to all the data by non-linear regression. The EC50 value in the presence and absence of antagonists was used to ascertain the concentration ratio (CR). Schild analysis was performed.

[3] = dose 2.5 mg/kg i.p. 45 min before adrenaline 20 μg/kg i.v.
[4] = dose 5 mg/kg i.p. 45 min before adrenaline 20 μg/kg i.v.
[5] = dose 10 mg/kg i.p. 45 min before adrenaline 20 μg/kg i.v.

With `COc1ccccc1N1CCN(CCOCCOc2c(C)cccc2Cl)CC1.Cl` [HBK-15, 1-[(2-chloro-6-methylphenoxy)ethoxyethyl]-4-(2-methoxyphenyl)piperazine hydrochloride] the “influence on ECG parameters (PQ interval, QRS complex, QTc interval)” value (normal ECG in rats) was “did not influence the ECG parameters”, the “Beats/min (ECG)” value (normal ECG in rats; 0 min (initial values)) was 353.8 ± 10.2 Beats/min and the “PQ (ECG)” value (normal ECG in rats; 0 min (initial values)) was 48.7 ± 1.0 ms. The “QRS (ECG)” value (normal ECG in rats; 0 min (initial values)) was 25.7 ± 0.7 ms, the “QT (ECG)” value (normal ECG in rats; 0 min (initial values)) was 87.3 ± 1.4 ms and the “QTc (ECG, Bazett)” value (normal ECG in rats; 0 min (initial values)) was 212.0 ± 5.0 ms. The “Beats/min (ECG)” value (normal ECG in rats; 5 min) was 365.4 ± 15.3 Beats/min, the “PQ (ECG)” value (normal ECG in rats; 5 min) was 48.4 ± 0.5 ms and the “QRS (ECG)” value (normal ECG in rats; 5 min) was 26.3 ± 0.9 ms. The “QT (ECG)” value (normal ECG in rats; 5 min) was 86.5 ± 1.3 ms, the “QTc (ECG, Bazett)” value (normal ECG in rats; 5 min) was 213.6 ± 7.0 ms and the “Beats/min (ECG)” value (normal ECG in rats; 10 min) was 350.8 ± 10.5 Beats/min. The “PQ (ECG)” value (normal ECG in rats; 10 min) was 48.2 ± 1.0 ms, the “QRS (ECG)” value (normal ECG in rats; 10 min) was 26.1 ± 1.1 ms and the “QT (ECG)” value (normal ECG in rats; 10 min) was 87.2 ± 2.0 ms. The “QTc (ECG, Bazett)” value (normal ECG in rats; 10 min) was 211.3 ± 6.2 ms, the “Beats/min (ECG)” value (normal ECG in rats; 15 min) was 333.9 ± 12.4 Beats/min and the “PQ (ECG)” value (normal ECG in rats; 15 min) was 46.6 ± 0.9 ms. The “QRS (ECG)” value (normal ECG in rats; 15 min) was 25.6 ± 1.2 ms, the “QT (ECG)” value (normal ECG in rats; 15 min) was 87.5 ± 2.0 ms and the “QTc (ECG, Bazett)” value (normal ECG in rats; 15 min) was 207.1 ± 6.8 ms. The “Beats/min (ECG)” value (normal ECG in rats; 20 min) was 327.6 ± 20.3 Beats/min, the “PQ (ECG)” value (normal ECG in rats; 20 min) was 47.6 ± 0.5 ms and the “QRS (ECG)” value (normal ECG in rats; 20 min) was 26.3 ± 0.5 ms. For the same compound, the “QT (ECG)” value (normal ECG in rats; 20 min) was 87.2 ± 0.6 ms, the “QTc (ECG, Bazett)” value (normal ECG in rats; 20 min) was 203.7 ± 7.2 ms and the “Beats/min (ECG)” value (normal ECG in rats; 30 min) was 340.1 ± 17.7 Beats/min. For the same compound, the “PQ (ECG)” value (normal ECG in rats; 30 min) was 46.1 ± 0.3 ms, the “QRS (ECG)” value (normal ECG in rats; 30 min) was 26.4 ± 0.9 ms and the “QT (ECG)” value (normal ECG in rats; 30 min) was 86.7 ± 1.1 ms. For the same compound, the “QTc (ECG, Bazett)” value (normal ECG in rats; 30 min) was 206.4 ± 7.9 ms, the “Beats/min (ECG)” value (normal ECG in rats; 40 min) was 339.5 ± 20.4 Beats/min and the “PQ (ECG)” value (normal ECG in rats; 40 min) was 46.1 ± 0.7 ms. The “QRS (ECG)” value (normal ECG in rats; 40 min) was 28.0 ± 0.9 ms, the “QT (ECG)” value (normal ECG in rats; 40 min) was 87.0 ± 1.5 ms and the “QTc (ECG, Bazett)” value (normal ECG in rats; 40 min) was 206.5 ± 6.6 ms. The “Beats/min (ECG)” value (normal ECG in rats; 50 min) was 350.1 ± 17.9 Beats/min, the “PQ (ECG)” value (normal ECG in rats; 50 min) was 47.5 ± 0.7 ms and the “QRS (ECG)” value (normal ECG in rats; 50 min) was 26.1 ± 1.2 ms. The “QT (ECG)” value (normal ECG in rats; 50 min) was 88.2 ± 0.8 ms, the “QTc (ECG, Bazett)” value (normal ECG in rats; 50 min) was 212.7 ± 6.9 ms and the “Beats/min (ECG)” value (normal ECG in rats; 60 min) was 351.8 ± 15.0 Beats/min. For the same compound, the “PQ (ECG)” value (normal ECG in rats; 60 min) was 48.0 ± 1.1 ms, the “QRS (ECG)” value (normal ECG in rats; 60 min) was 26.3 ± 0.5 ms and the “QT (ECG)” value (normal ECG in rats; 60 min) was 88.5 ± 2.2 ms. The “QTc (ECG, Bazett)” value (normal ECG in rats; 60 min) was 213.9 ± 7.2 ms, the Ki (α1-adrenoceptor) was 13.1 nM and the ED50 ([1]; Rattus norvegicus, read-out: ED50 (confidence limits)) was 4.8 mg/kg. For the same compound, the “Bigeminy (%)” value [1, 3] was 33.3%, the “Blocks (%)” value [1, 3] was 66.7% and the “Bradycardia (%)” value [1, 3] was 66.7%. The “Extrasystoles (%)” value [1, 3] was 66.7%, the “Bigeminy (%)” value [1, 4] was 16.7% and the “Blocks (%)” value [1, 4] was 50.0%. For the same compound, the “Bradycardia (%)” value [1, 4] was 66.7%, the “Extrasystoles (%)” value [1, 4] was 50.0% and the “Bigeminy (%)” value [1, 5] was 16.7%. The “Blocks (%)” value [1, 5] was 33.3%, the “Bradycardia (%)” value [1, 5] was 50.0% and the “Extrasystoles (%)” value [1, 5] was 33.3%. For the same compound, the “inhibition of lipid peroxidation (in words)” value [2] was “inactive”, the “% reduction of absorbance (% antioxidant activity)” value ([2]; TBARs at 532 nm) was 1.22% and the Absorbance ([2]; TBARs at 532 nm) was 0.891 ± 0.008. The “Schild slope ± S.E.M., α1B” value (α1B-adrenoceptors) was 0.96 ± 0.01 and the Kb (α1B-adrenoceptors; read-out: pA2 ± S.E.M., α1B (converted)) was 21.4 nM.
